# Experiments:
# [1] = MTX toxicity in irradiated mice transplanted with normal (non-transgenic) FVB/N marrow
# Procedure: (§1) Male marrow is used as competitor so that Y chromosome sequences can be used as a quantitative signal for the presence of competitor-derived material at the time of analysis, while the DHFR transgene can be used as a quantitative signal for presence of DHFR-transgenic-derived material.
# (§2) Animals in each of the three groups were administered either PBS or MTX at an increasing dose schedule culminating at 4 mg/kg/day. MTX administration was continued out to 60 days post-transplant. […] After 60 days, MTX administration is stopped. A small number of animals were sacrificed at this time to collect marrow samples for subsequent analysis, but most of the animals were maintained for an additional 2 months. At 4 months post-transplant, all surviving animals were sacrificed and bone marrow harvested. Each marrow sample collected was resuspended and then injected into 5 lethally-irradiated secondary female FVB/N recipients (2×10^6 donor cells per secondary recipient), saving the leftover marrow for subsequent molecular analysis. Secondary recipients were maintained for an additional 4 months before sacrificing and harvesting marrow samples.
# [2] = system: stem cells expressing a MTX-resistant DHFR; assay: Competitive repopulation with 50/50 mixture of normal and DHFR transgenic marrow, Southern blot of marrow DNA; format: in vivo, FVB/N mice
# Procedure: as §1, §2
smiles,measurement,setting,value
"CN(Cc1cnc2nc(N)nc(N)c2n1)c1ccc(C(=O)N[C@@H](CCC(=O)O)C(=O)O)cc1 [MTX, methotrexate]",toxicity of low dose MTX,"[1]; 0.25 mg/kg/day for 1-4 days, 0.5 mg/kg/day next four days, then 1.0 mg/kg/day, recipients of non-transgenic marrow",caused hematopoietic toxicity
same,time at which animals succumb to MTX induced toxicity,"[1]; irradiated (900 rads) mice transplanted with 10^7 normal FVB/N marrow cells, MTX increasing dose schedule culminating at 4 mg/kg/day, all animals",15-30 days post-transplant
same,toxicity of high dose MTX,"[1]; mouse, in vivo, 4 mg/kg/day",causes not only hematopoietic toxicity but gastrointestinal toxicity as well
same,DHFR transgene copy number in primary recipients,"[2]; animals transplanted with transgenic marrow, MTX rather than PBS",substantial increase
same,secondary recipients showing a substantial contribution of transgenic marrow,"[2]; primary transplant 50% normal / 50% DHFR transgenic marrow, MTX up to 4 mg/kg/day for 60 days, secondary recipients analysed 4 months after secondary transplant",5 out of 5
